Data set [1] deals with Leaf. As to the kind of experiment: Residue remaining in Solanum lycopersicum (tomato) plant leaves at 300 g/L treated under green house condition measured after 11 days relative to initial level. The note with it: 264 h.
For data set [2], the system named is Leaf. Put plainly: Drug degradation in Solanum lycopersicum (tomato) plant leaves at 300 g/L treated under green house condition measured after 5 days relative to initial level. It counts as ADME. The note with it: 120 h.
Data set [3] relates to Fruit. Put plainly: Drug degradation in Solanum lycopersicum (tomato) plant fruits at 300 g/L treated under green house condition measured after 8 days relative to initial level. It counts as ADME. The note with it: 192 h.
The subject of data set [4] is Fruit. As to the kind of experiment: Residue remaining in Solanum lycopersicum (tomato) plant fruits at 300 g/L treated under green house condition measured after 3 days relative to initial level. The note with it: 72 h.
The subject of data set [5] is Leaf. Put plainly: Drug degradation in Solanum lycopersicum (tomato) plant leaves at 300 g/L treated under green house condition measured after 8 days relative to initial level. Type of data set: ADME. Particulars: 192 h.
The subject of data set [6] is Leaf. Put plainly: Drug recovery in Solanum lycopersicum (tomato) plant leaves at 1.83 ug/cm'2 of spiking level. It counts as ADME.
The subject of data set [7] is Leaf. As to the kind of experiment: Drug degradation in Solanum lycopersicum (tomato) plant leaves at 300 g/L treated under green house condition measured after 15 days relative to initial level. Type of data set: ADME. The note with it: 360 h.
The test system of data set [8] is Leaf. As to the kind of experiment: Drug degradation in Solanum lycopersicum (tomato) plant leaves at 300 g/L treated under green house condition measured after 6 days relative to initial level. Type of data set: ADME. The note with it: 144 h.
Data set [9] relates to Leaf. As to the kind of experiment: Drug degradation in Solanum lycopersicum (tomato) plant leaves at 300 g/L treated under green house condition measured after 4 days relative to initial level. It counts as ADME. Particulars: 96 h.
In data set [10] the test system is Fruit. As to the kind of experiment: Drug recovery in Solanum lycopersicum (tomato) plant fruits at 0.14 ug/g of spiking level. Type of data set: ADME.
A short description of data set [11]: Half life in Solanum lycopersicum (tomato) plant fruits at 300 g/L treated under green house condition. It counts as ADME, Fruit.
Data set [12] relates to Fruit. As to the kind of experiment: Drug degradation in Solanum lycopersicum (tomato) plant fruits at 300 g/L treated under green house condition measured after 15 days relative to initial level. Type of data set: ADME. Particulars: 360 h.
Data set [13] has as its system Fruit. As to the kind of experiment: Drug degradation in Solanum lycopersicum (tomato) plant fruits at 300 g/L treated under green house condition measured after 10 days relative to initial level. It counts as ADME. The note with it: 240 h.
Data set [14] relates to Leaf. Put plainly: Residue remaining in Solanum lycopersicum (tomato) plant leaves at 300 g/L treated under green house condition measured after 7 days relative to initial level. Particulars: 168 h.
The test system of data set [15] is Leaf. Put plainly: Drug degradation in Solanum lycopersicum (tomato) plant leaves at 300 g/L treated under green house condition measured after 10 days relative to initial level. Particulars: 240 h. It counts as ADME.
A short description of data set [16]: Half life in Solanum lycopersicum (tomato) plant leaves at 300 g/L treated under green house condition. It counts as ADME, Leaf.
The subject of data set [17] is Leaf. Put plainly: Drug degradation in Solanum lycopersicum (tomato) plant leaves at 300 g/L treated under green house condition measured after 3 days relative to initial level. It counts as ADME. Particulars: 72 h.
Data set [18] relates to Leaf. Put plainly: Drug residue remaining in Solanum lycopersicum (tomato) plant leaves at 300 g/L treated under green house condition measured after 22 days relative to initial level. The note with it: 528 h.
For data set [19], the system named is Fruit. As to the kind of experiment: Drug degradation in Solanum lycopersicum (tomato) plant fruits at 300 g/L treated under green house condition measured after 1 day relative to initial level. Type of data set: ADME. Particulars: 24 h.
The test system of data set [20] is Fruit. Put plainly: Drug degradation in Solanum lycopersicum (tomato) plant fruits at 300 g/L treated under green house condition measured after 22 days relative to initial level. It counts as ADME. Particulars: 528 h.
In data set [21] the test system is Leaf. As to the kind of experiment: Drug degradation in Solanum lycopersicum (tomato) plant leaves at 300 g/L treated under green house condition measured after 1 day relative to initial level. Particulars: 24 h. Type of data set: ADME.

The values below come from ChEMBL document CHEMBL3046828, “Disappearance of pyrimethanil residues on tomato plants” (J Agric Food Chem, 2002).

For orientation: half-life means the time needed for the level to fall by half in the phase considered. A higher half-life goes with slow decline.

As to `Cc1cc(C)nc(Nc2ccccc2)n1` [PYRIMETHANIL], the Residue remaining in [1] is reported as 0%; in data set [3], 16%; in data set [4], 79%; in data set [8], 11%; in data set [9], 22%; in data set [12], 5%. In addition, the Residue remaining is on record as 11% in data set [14], 41% in [17], 0% in [18] and 0% in data set [20]. In addition, the Drug remaining in data set [2] turned out to be 25%; in [13], 15%; in data set [19], 100%; in [21], 100%. Besides, the Drug degradation is listed as 0% in data set [5], 0% in data set [7] and 0.02% in [15]. Besides, the Drug recovery in [6] stood at 91%; in data set [10] it was 99%. For the same compound, the half-life is 137 h in [11] and 96 h in [16].
